US5977373A, “Thiadiazolyl and oxadiazolyl phenyl oxazolidinone antibacterial agents” (Pharmacia & Upjohn Company, priority 1998, dated 1999)
≈ marks a conversion by molar mass, not a printed value.

What was measured:
Format in all cases: cell-based
[1] = test system: S. Aureus UC ® 9213; test: In vitro minimum inhibitory concentration (MIC) by agar dilution, gram-positive bacteria (Table 1); details: Staphylococcus aureus, UC9213
Excerpt: (§1) The oxazolidinone antibacterial agents of this invention have useful activity against a variety of microorganisms. The in vitro activity of compounds of this invention can be assessed by standard testing procedures such as the determination of minimum inhibitory concentration (MIC) by agar dilution as described in "Methods for Dilution Antimicrobial Susceptibility Tests for Bacteria That Grow Aerobically" (MFT) published January 1983 by the National Committee for Clinical Laboratory Standards, 771 East Lancaster Avenue, Villanova, Pa. 19084, USA. The activity of selected compounds of this invention against Staphylococcus aureus and Streptococcus pneumoniae are shown in Table 1.

[2] = test system: S. pneumoniae UC ® 9912; test: as above; details: Streptococcus pneumoniae, UC9912
Excerpt: as §1

[3] = test system: HI 30063; test: MIC for a gram negative bacterial strain (Table 2); details: gram negative bacterial strain HI 30063

MIC [1] [µg/mL]	MIC [2] [µg/mL]	MIC [3] [µg/mL]	SMILES
1 (≈ 2.48 µM)	< 0.125	4 (≈ 9.91 µM)	CC(=O)NC[C@H]1CN(c2ccc(-c3nnc(CCCC#N)s3)c(F)c2)C(=O)O1 [Example 61, (S)-N-[[3-[4-[5-(3-Cyanopropyl)-1,3,4-thiadiazol-2-yl]-3-fluorophenyl]-2-oxo-5-oxazolidinyl]methyl]acetamide]
1 (≈ 2.54 µM)	< 0.125	2 (≈ 5.08 µM)	CC(=O)NC[C@H]1CN(c2ccc(-c3nnc(CC=NO)s3)c(F)c2)C(=O)O1 [Example 64, (S)-N-[[3-[3-Fluoro-4-[5-[2-(hydroxyimino)ethyl]-1,3,4-thiadiazol-2-yl]phenyl]-2-oxo-5-oxazolidinyl]methyl]acetamide]
8 (≈ 21.9 µM)	< 0.125	2 (≈ 5.47 µM)	CC(=O)NC[C@H]1CN(c2ccc(-c3nnc(CN)s3)c(F)c2)C(=O)O1 [Example 6, (S)-N-[[3-[4-[5-(Aminomethyl)-1,3,4-thiadiazol-2-yl]-3-fluorophenyl]-2-oxo-5-oxazolidinyl]methyl]acetamide]
1 (≈ 2.44 µM)	0.25 (≈ 0.611 µM)	4 (≈ 9.77 µM)	CC(=O)NC[C@H]1CN(c2ccc(-c3nnc(CC[N+](=O)[O-])s3)c(F)c2)C(=O)O1 [Example 53, (S)-N-[[3-[3-Fluoro-4-[5-(2-nitroethyl)-1,3,4-thiadiazol-2-yl]phenyl]-2-oxo-5-oxazolidinyl]methyl]acetamide]
2 (≈ 5.26 µM)	0.25 (≈ 0.657 µM)	4 (≈ 10.5 µM)	CC(=O)NC[C@H]1CN(c2ccc(-c3nnc([C@H](C)O)s3)c(F)c2)C(=O)O1 [Example 51, [S-(R*,R*)]-N-[[3-[3-Fluoro-4-[5-(1-hydroxyethyl)-1,3,4-thiadiazol-2-yl]phenyl]-2-oxo-5-oxazolidinyl]methyl]acetamide]
1 (≈ 2.71 µM)	0.25 (≈ 0.679 µM)	4 (≈ 10.9 µM)	CC(=O)NC[C@H]1CN(c2ccc(-c3nnc(CF)s3)c(F)c2)C(=O)O1 [Example 8, (S)-N-[[3-[3-Fluoro-4-(5-fluoromethyl-1,3,4-thiadiazol-2-yl)phenyl]-2-oxo-5-oxazolidinyl]methyl]acetamide]
1 (≈ 2.85 µM)	0.25 (≈ 0.714 µM)	4 (≈ 11.4 µM)	CCC(=O)NC[C@H]1CN(c2ccc(-c3nncs3)c(F)c2)C(=O)O1 [Example 71, (S)-N-[[3-[3-Fluoro-4-(1,3,4-thiadiazol-2-yl)phenyl]-2-oxo-5-oxazolidinyl]methyl]propanamide]
4 (≈ 9.38 µM)	0.25 (≈ 0.586 µM)	4 (≈ 9.38 µM)	CC(=O)NC[C@H]1CN(c2ccc(-c3nnc(CC[S+](C)[O-])s3)c(F)c2)C(=O)O1 (stereo partly drawn) [Example 24, (S)-N-[[3-[3-Fluoro-4-[5-[2-(methylsulfinyl)ethyl]-1,3,4-thiadiazol-2-yl]phenyl]-2-oxo-5-oxazolidinyl]methyl]acetamide]
0.25 (≈ 0.709 µM)	< 0.125	1 (≈ 2.84 µM)	CC(=S)NC[C@H]1CN(c2ccc(-c3nncs3)c(F)c2)C(=O)O1 [Example 74, (S)-N-[[3-[3-Fluoro-4-(1,3,4-thiadiazol-2-yl)phenyl]-2-oxo-5-oxazolidinyl]methyl]ethanethioamide]
4 (≈ 10.5 µM)	< 0.125	4 (≈ 10.5 µM)	CC(=O)NC[C@H]1CN(c2ccc(-c3nnc([C@@H](C)N)s3)c(F)c2)C(=O)O1 [Example 56, [S-(R*,S*)]-N-[[3-[4-[5-(1-Aminoethyl)-1,3,4-thiadiazol-2-yl]-3-fluorophenyl]-2-oxo-5-oxazolidinyl]methyl]acetamide]
2 (≈ 5.02 µM)	0.25 (≈ 0.627 µM)	4 (≈ 10 µM)	CC(=O)NC[C@H]1CN(c2ccc(-c3nnc([S+](C)[O-])s3)c(F)c2)C(=O)O1 (stereo partly drawn) [Example 47, (5S)-N-[[3-[3-Fluoro-4-[5-(methylsulfinyl)-1,3,4-thiadiazol-2-yl]phenyl]-2-oxo-5-oxazolidinyl]methyl]acetamide]
2 (≈ 5.26 µM)	< 0.125	2 (≈ 5.26 µM)	CC(=O)NC[C@H]1CN(c2ccc(-c3nnc(CCO)s3)c(F)c2)C(=O)O1 [Example 26, (S)-N-[[3-[3-Fluoro-4-[5-(2-hydroxyethyl)-1,3,4-thiadiazol-2-yl]phenyl]-2-oxo-5-oxazolidinyl]methyl]acetamide]
0.25 (≈ 0.707 µM)	< 0.125	1 (≈ 2.83 µM)	NC(=S)NC[C@H]1CN(c2ccc(-c3nncs3)c(F)c2)C(=O)O1 [Example 75, (S)-[[3-[3-Fluoro-4-(1,3,4-thiadiazol-2-yl)phenyl]-2-oxo-5-oxazolidinyl]methyl]thiourea]
1 (≈ 2.74 µM)	0.25 (≈ 0.686 µM)	4 (≈ 11 µM)	CCc1nnc(-c2ccc(N3C[C@H](CNC(C)=O)OC3=O)cc2F)s1 [Example 4, (S)-N-[[3-[4-(5-Ethyl-1,3,4-thiadiazol-2-yl)-3-fluorophenyl]-2-oxo-5-oxazolidinyl]methyl]acetamide]
2 (≈ 5.26 µM)	0.25 (≈ 0.657 µM)	4 (≈ 10.5 µM)	CC(=O)NC[C@H]1CN(c2ccc(-c3nnc([C@@H](C)O)s3)c(F)c2)C(=O)O1 [Example 52, [S-(R*,S*)]-N-[[3-[3-Fluoro-4-[5-(1-hydroxyethyl)-1,3,4-thiadiazol-2-yl]phenyl]-2-oxo-5-oxazolidinyl]methyl]acetamide]
0.5 (≈ 1.38 µM)	< 0.125	2 (≈ 5.53 µM)	CC(=O)NC[C@H]1CN(c2ccc(-c3nnc(C#N)s3)c(F)c2)C(=O)O1 [Example 1, (S)-N-[[3-[4-(5-Cyano-1,3,4-thiadiazol-2-yl)-3-fluorophenyl]-2-oxo-5-oxazolidinyl]methyl]acetamide]
0.5 (≈ 1.31 µM)	< 0.125	4 (≈ 10.5 µM)	CSc1nnc(-c2ccc(N3C[C@H](CNC(C)=O)OC3=O)cc2F)s1 [Example 31, (S)-N-[[3-[3-Fluoro-4-[5-(methylthio)-1,3,4-thiadiazol-2-yl]phenyl]-2-oxo-5-oxazolidinyl]methyl]acetamide]
4 (≈ 9.02 µM)	< 0.125	2 (≈ 4.51 µM)	CC(=O)NC[C@H]1CN(c2ccc(-c3nnc(CNS(C)(=O)=O)s3)c(F)c2)C(=O)O1 [Example 7, (S)-N-[[3-[3-Fluoro-4-[5-[[(methylsulfonyl)amino]methyl]-1,3,4-thiadiazol-2-yl]phenyl]-2-oxo-5-oxazolidinyl]methyl]acetamide]
8 (≈ 19.4 µM)	0.25 (≈ 0.606 µM)		CC(=O)NC[C@H]1CN(c2ccc(-c3nnc(C[S+](C)[O-])s3)c(F)c2)C(=O)O1 (stereo partly drawn) [Example 22, (S)-N-[[3-[3-Fluoro-4-[5-[(methylsulfinyl)methyl]-1,3,4-thiadiazol-2-yl]phenyl]-2-oxo-5-oxazolidinyl]methyl]acetamide]
1 (≈ 2.44 µM)	0.25 (≈ 0.609 µM)		CSCCc1nnc(-c2ccc(N3C[C@H](CNC(C)=O)OC3=O)cc2F)s1 [Example 23, (S)-N-[[3-[3-Fluoro-4-[5-[2-(methylthio)ethyl]-1,3,4-thiadiazol-2-yl]phenyl]-2-oxo-5-oxazolidinyl]methyl]acetamide]
16 (≈ 35 µM)	0.5 (≈ 1.09 µM)		CC(=O)NC[C@H]1CN(c2ccc(-c3nnc(CCNS(C)(=O)=O)s3)c(F)c2)C(=O)O1 [Example 46, (S)-N-[[3-[3-Fluoro-4-[5-[2-[(methylsulfonyl)amino]ethyl]-1,3,4-thiadiazol-2-yl]phenyl]-2-oxo-5-oxazolidinyl]methyl]acetamide]
2 (≈ 4.95 µM)	0.5 (≈ 1.24 µM)		CC(=O)NC[C@H]1CN(c2ccc(-c3nnc(C(F)(F)F)s3)c(F)c2)C(=O)O1 [Example 15, (S)-N-[[3-[3-Fluoro-4-[5-(trifluoromethyl)-1,3,4-thiadiazol-2-yl]phenyl]-2-oxo-5-oxazolidinyl]methyl]acetamide]
8 (≈ 17.7 µM)	2 (≈ 4.43 µM)		CC(=O)NC[C@H]1CN(c2ccc(-c3nnc(NC(=O)COC(C)=O)s3)c(F)c2)C(=O)O1 [Example 68, (S)-N-[5-[4-[5-[(Acetylamino)methyl]-2-oxo-3-oxazolidinyl]-2-fluorophenyl]-1,3,4-thiadiazol-2-yl]-2-(acetyloxy)acetamide]
16 (≈ 37.8 µM)	< 0.5		CC(=O)NC[C@H]1CN(c2ccc(-c3nnc(CNC(=O)CO)s3)c(F)c2)C(=O)O1 [Example 67]
> 16	2 (≈ 5.79 µM)		CC(=O)NC[C@H]1CN(c2ccc(-c3noc(C#N)n3)c(F)c2)C(=O)O1 [Example 38, (S)-N-[[3-[4-(5-Cyano-1,2,4-oxadiazol-3-yl)-3-fluorophenyl]-2-oxo-5-oxazolidinyl]methyl]acetamide]
2 (≈ 5.07 µM)	0.25 (≈ 0.634 µM)		CC(=O)NC[C@H]1CN(c2ccc(-c3nnc(CC(C)O)s3)c(F)c2)C(=O)O1 (stereo partly drawn) [Example 28, (5S)-N-[[3-[3-Fluoro-4-[5-(2-hydroxypropyl)-1,3,4-thiadiazol-2-yl]phenyl]-2-oxo-5-oxazolidinyl]methyl]acetamide]
4 (≈ 9.79 µM)	0.25 (≈ 0.612 µM)		CCC(=O)NC[C@H]1CN(c2ccc(-c3nnc(CCOC)s3)c(F)c2)C(=O)O1 [Example 72, (S)-N-[[3-[3-Fluoro-4-[5-(2-methoxyethyl)-1,3,4-thiadiazol-2-yl]phenyl]-2-oxo-5-oxazolidinyl]methyl]propanamide]
4 (≈ 11.4 µM)	0.25 (≈ 0.712 µM)		CC(=O)NC[C@H]1CN(c2ccc(-c3nnc(N)s3)c(F)c2)C(=O)O1 [Example 30, (S)-N-[[3-[4-(5-Amino-1,3,4-thiadiazol-2-yl)-3-fluorophenyl]-2-oxo-5-oxazolidinyl]methyl]acetamide]

SMILES	MIC [1] [µg/mL]	MIC [2] [µg/mL]	MIC [3] [µg/mL]
CC(=O)NC[C@H]1CN(c2ccc(-c3nnc(COC(C)=O)s3)c(F)c2)C(=O)O1 [Example 10, (S)-N-[[3-[4-(5-Acetoxymethyl-1,3,4-thiadiazol-2-yl)-3-fluorophenyl]-2-oxo-5-oxazolidinyl]methyl]acetamide]	1 (≈ 2.45 µM)	< 0.125	4 (≈ 9.79 µM)
